In US20240270821A1, “GIP/GLP1/GCG TRI-RECEPTOR AGONISTS AND USES THEREOF” (priority 2023, published 2024):
Read-outs that look alike come from different tables or passages of the source. Starred links: 1 amine or outer side, 2 acyl side, 3 side chain; linkers in the order of their positions; H or OH if unused. Non-standard residues stand in square brackets, D forms with d. Groups on a side chain read outwards from the residue. *: point of attachment. C20 diacid = O=C(O)CCCCCCCCCCCCCCCCCCC(=O)*; γGlu = O=C(O)[C@H](CCC(=O)[*:2])N[*:1]; αMeL = CC(C)C[C@](C)(N)C(=O)O; Orn = NCCC[C@H](N)C(=O)O; AEEA = NCCOCCOCC(=O)O; Aib = CC(C)(N)C(=O)O

Legend:
Assay type in all cases: cell-based
[1] = target: T1, hGIPR (Homo sapiens, UniProt P48546); experiment: Functional cAMP activity in the presence of 1% HSA
T1 sequence (P48546 22-466): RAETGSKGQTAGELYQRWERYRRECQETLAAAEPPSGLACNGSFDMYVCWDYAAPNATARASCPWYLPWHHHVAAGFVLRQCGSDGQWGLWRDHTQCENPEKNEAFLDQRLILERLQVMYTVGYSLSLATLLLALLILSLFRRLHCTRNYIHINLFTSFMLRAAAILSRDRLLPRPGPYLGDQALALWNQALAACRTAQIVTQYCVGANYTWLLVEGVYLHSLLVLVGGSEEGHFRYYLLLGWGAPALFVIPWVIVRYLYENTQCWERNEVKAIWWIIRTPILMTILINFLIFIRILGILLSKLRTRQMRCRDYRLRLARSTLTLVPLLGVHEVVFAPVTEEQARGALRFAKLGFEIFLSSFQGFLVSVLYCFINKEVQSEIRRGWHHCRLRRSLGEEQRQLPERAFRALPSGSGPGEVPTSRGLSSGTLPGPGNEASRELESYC

[2] = target: T2, hGLP-1R (Homo sapiens, UniProt P43220); experiment: Functional cAMP activity in the presence of 1% HSA
[3] = target: human GcgR (Homo sapiens, UniProt P47871); experiment: Functional cAMP activity in the presence of 1% HSA
[4] = target: T1, hGIPR; experiment: Functional cAMP activation in the presence of 0.1% casein (no HSA);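 on Relative cAMP EC50, hGIPR: intracellular cAMP rise after 30 min at 37 °C read by HTRF against a standard curve, scaled between buffer alone (0%) and top control ligand concentration (100%), four-parameter fit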;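 on Relative cAMP EC50, hGLP-1R: intracellular cAMP rise after 30 min at 37 °C read by HTRF, normalized between buffer only (0%) and maximal control ligand (100%), four-parameter variable-slope fit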;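 on Relative cAMP EC50, hGcgR: intracellular cAMP rise after 30 min at 37 °C, read by HTRF against a cAMP standard curve, scaled from buffer only (0%) to maximal control ligand response (100%)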
[5] = target: T2, hGLP-1R; experiment: as above
[6] = target: hGcgR (Homo sapiens, UniProt P47871); experiment: as above;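 further: intracellular cAMP rise after 30 min at 37 °C, read by HTRF against a cAMP standard curve, scaled from buffer only (0%) to maximal control ligand response (100%)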
[7] = read-out: cAMP Rel EC50, hGLP-1R
[8] = in the presence of 0.1% casein (no HSA), geometric mean, read-out: Relative cAMP EC50, hGIPR
[9] = in the presence of 0.1% casein (no HSA), geometric mean, read-out: Relative cAMP EC50, hGLP-1R
[10] = in the presence of 0.1% casein (no HSA), geometric mean, read-out: Relative cAMP EC50, hGcgR

T2 sequence (P43220 24-463): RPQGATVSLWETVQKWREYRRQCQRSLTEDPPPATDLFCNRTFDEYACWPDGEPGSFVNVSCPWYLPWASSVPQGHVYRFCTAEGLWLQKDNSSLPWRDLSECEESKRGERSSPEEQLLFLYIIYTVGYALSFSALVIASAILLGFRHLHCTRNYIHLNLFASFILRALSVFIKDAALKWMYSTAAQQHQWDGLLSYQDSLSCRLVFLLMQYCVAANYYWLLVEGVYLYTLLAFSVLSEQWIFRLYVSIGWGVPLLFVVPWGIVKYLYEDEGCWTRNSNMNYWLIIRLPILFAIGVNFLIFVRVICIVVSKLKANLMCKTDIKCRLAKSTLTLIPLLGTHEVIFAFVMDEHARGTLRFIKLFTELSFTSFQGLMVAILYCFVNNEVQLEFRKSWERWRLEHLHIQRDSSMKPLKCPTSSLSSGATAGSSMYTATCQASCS
Sequence of hGcgR (P47871 26-477): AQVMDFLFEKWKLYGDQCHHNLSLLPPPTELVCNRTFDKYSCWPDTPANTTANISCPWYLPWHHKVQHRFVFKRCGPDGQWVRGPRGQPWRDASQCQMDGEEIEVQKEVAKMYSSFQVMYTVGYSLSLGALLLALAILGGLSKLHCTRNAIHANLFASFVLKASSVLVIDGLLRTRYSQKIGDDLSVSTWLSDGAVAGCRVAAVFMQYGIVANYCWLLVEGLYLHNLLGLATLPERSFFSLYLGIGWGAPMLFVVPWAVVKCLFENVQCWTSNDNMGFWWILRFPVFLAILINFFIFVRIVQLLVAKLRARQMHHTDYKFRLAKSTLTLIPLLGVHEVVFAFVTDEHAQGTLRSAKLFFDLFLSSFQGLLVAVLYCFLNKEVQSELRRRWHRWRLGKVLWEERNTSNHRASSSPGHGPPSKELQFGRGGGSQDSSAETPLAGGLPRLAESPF
Sequence of human GcgR (P47871 26-477): as above

Substance	EC50 ([1]; read-out: cAMP Rel EC50, hGIPR)	EC50 [2, 7]	EC50 ([3]; read-out: cAMP Rel EC50, hGcgR)	EC50 [4, 8]	EC50 [5, 9]	EC50 [6, 10]	EC50 [1]	EC50 [2]	EC50 [3]	EC50 [4]	EC50 [5]	EC50 [6]
H-Y[Aib]QGTFTSDYSI[αMeL]LDKQAAK([AEEA-AEEA-γGlu-C20 diacid])AFVEWLLA[Aib]GPSSGEPPPSEG-NH2 [Example 317]	62.8 nM	234 nM	1500 nM	0.474 nM	1.32 nM	2.42 nM	–	–	–	–	–	–
H-Y[Aib]QGTFTSDYSI[αMeL]LDKQAAK([AEEA-AEEA-γGlu-C20 diacid])QFIEWLIEGGPSSGEPPPGAE-NH2 [Example 319]	–	–	–	–	–	–	60.1 nM	119 nM	1650 nM	0.485 nM	0.947 nM	4.81 nM
H-Y[Aib]QGTFTSDYSI[αMeL]LDKQAAK([AEEA-AEEA-γGlu-C20 diacid])QFIEWLIEGGPSSGEPPPGEG-NH2 [Example 318]	52.8 nM	111 nM	1970 nM	0.378 nM	0.698 nM	5.03 nM	–	–	–	–	–	–
H-Y[Aib]QGTFTSDYSI[αMeL]LDKQAAK([AEEA-AEEA-γGlu-C20 diacid])QFVEWLIAGGPSSGEPPPAEG-NH2 [Example 332]	78.2 nM	298 nM	3340 nM	0.413 nM	1.24 nM	11.8 nM	–	–	–	–	–	–
H-Y[Aib]QGTFTSDYSI[αMeL]LDKQAAK([AEEA-AEEA-γGlu-C20 diacid])QFVEWLIA[Aib]GPSSGEPPPGEG-NH2 [Example 333]	36.3 nM	182 nM	1410 nM	0.265 nM	0.705 nM	7.09 nM	–	–	–	–	–	–
H-Y[Aib]QGTFTSDYSI[αMeL]LDKQAAK([AEEA-AEEA-γGlu-C20 diacid])QFVEWLIA[Aib]GPSSGEPPPGSG-NH2 [Example 335]	46.7 nM	150 nM	1410 nM	0.292 nM	0.461 nM	6.11 nM	–	–	–	–	–	–
H-Y[Aib]QGTFTSDYSI[αMeL]LDKQAAK([AEEA-AEEA-γGlu-C20 diacid])QFVEWLIA[Aib]GPSSGEPPPGTG-NH2 [Example 336]	64.4 nM	227 nM	1740 nM	0.306 nM	0.921 nM	7.05 nM	–	–	–	–	–	–
H-Y[Aib]QGTFTSDYSI[αMeL]LDKQAAK([AEEA-AEEA-γGlu-C20 diacid])QFVEWLIA[Aib]GPSSGEPPPSEG-NH2 [Example 326]	83.7 nM	172 nM	1500 nM	0.3 nM	0.555 nM	5.34 nM	–	–	–	–	–	–
H-Y[Aib]QGTFTSDYSI[αMeL]LDKQAAK([AEEA-AEEA-γGlu-C20 diacid])QFVEWLLA[Aib]GPSSGAPPPSEG-NH2 [Example 327]	63.3 nM	473 nM	1400 nM	0.312 nM	1.61 nM	3.04 nM	–	–	–	–	–	–
H-Y[Aib]QGTFTSDYSI[αMeL]LDKQAAK([AEEA-AEEA-γGlu-C20 diacid])QFVNWLLA[Aib]GPSSGEPPPSEG-NH2 [Example 325]	82.7 nM	371 nM	774 nM	0.351 nM	1.56 nM	2.43 nM	–	–	–	–	–	–
H-Y[Aib]QGTFTSDYSI[αMeL]LD[Orn]QAAK([AEEA-AEEA-γGlu-C20 diacid])QFVEWLLA[Aib]GPSSGEPPPSEG-NH2 [Example 328]	91.1 nM	462 nM	2040 nM	0.544 nM	1.3 nM	10.3 nM	–	–	–	–	–	–
H-Y[Aib]QGTFTSDYSK[αMeL]LDKK([AEEA-γGlu-C20 diacid])AQQAFIEYLIAGGPSSGAPPPSSE-NH2 [Example 322]	89.3 nM	135 nM	2620 nM	0.264 nM	0.394 nM	5.41 nM	–	–	–	–	–	–
H-Y[Aib]QGTFTSDYSK[αMeL]LDKK([AEEA-γGlu-C20 diacid])AQQAFIEYLIAGGPSSGEPPPSGD-NH2 [Example 337]	99.1 nM	272 nM	2950 nM	0.332 nM	0.686 nM	5.95 nM	–	–	–	–	–	–
H-Y[Aib]QGTFTSDYSK[αMeL]LDKK([AEEA-γGlu-C20 diacid])AQQAFIEYLLAGGPSSGEPPPSGE-NH2 [Example 344]	70.7 nM	523 nM	1440 nM	0.406 nM	2.56 nM	9.05 nM	–	–	–	–	–	–
